What all share (test): relative viability (nuclei count vs DMSO), 5 days (fraction); higher = more cells survive
Compound in assay [1]: Cc1ccc(-n2nc(C(C)(C)C)cc2NC(=O)Nc2ccc(OCCN3CCOCC3)c3ccccc23)cc1 [Doramapimod] + O=C(CCCCCCC(=O)Nc1ccccc1)NO [Vorinostat] (partner 1 µM)
Summed up:
(§1)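 Lung cancer cell lines, seeded in 1536-well plates, were treated the following day by pin tool with a single drug or with five library-drug doses (not always all listed) in √10 steps on top of a fixed anchor-drug dose. Cells were fixed and nuclei stained in one step after 5 days, and nuclei were counted. Relative viability is the nuclei count for treated wells divided by that for vehicle wells, reported as medians of duplicate plates.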

Compound in assay [2]: C1=CC=C2C(=C1)C=CC(=C2SSC3=C(C=CC4=CC=CC=C43)O)O [IPA-3] + CS(=O)(=O)CCNCc1ccc(-c2ccc3ncnc(Nc4ccc(OCc5cccc(F)c5)c(Cl)c4)c3c2)o1 [Lapatinib] (partner 2 µM)
Summed up: as §1

Compound in assay [3]: Cn1c(Nc2ccc(C(F)(F)F)cc2)nc2cc(Oc3ccnc(-c4ncc(C(F)(F)F)[nH]4)c3)ccc21 [RAF265] + Cc1nc(Nc2ncc(C(=O)Nc3c(C)cccc3Cl)s2)cc(N2CCN(CCO)CC2)n1 [Dasatinib] (partner 0.075 µM)
Summed up: as §1

Compound in assay [4]: C1=CC=C2C(=C1)C=CC(=C2SSC3=C(C=CC4=CC=CC=C43)O)O [IPA-3] + CC1(C)CCC(c2ccc(Cl)cc2)=C(CN2CCN(c3ccc(C(=O)NS(=O)(=O)c4ccc(N[C@H](CCN5CCOCC5)CSc5ccccc5)c(S(=O)(=O)C(F)(F)F)c4)cc3)CC2)C1 [Navitoclax] (partner 0.5 µM)
Summed up: as §1

On to NCI-H647, for which the relative viability in assay [1] (first compound 0.02 µM) was 0.336; in assay [1] (first compound 0.06325 µM), 0.621; in assay [1] (first compound 0.2 µM) it was 0.429; in assay [1] (first compound 0.6325 µM), 0.548; in assay [1] (first compound 2 µM) it was 0.381; in assay [2] (first compound 0.2 µM) it was 1.71. The relative viability in assay [2] (first compound 0.6325 µM) was 1.02; in assay [2] (first compound 2 µM), 0.876; in assay [2] (first compound 6.325 µM), 0.335; in assay [2] (first compound 20 µM) it was 0.0724; in assay [3] (first compound 0.01 µM), 0.197; in assay [3] (first compound 0.03162 µM) it was 0.132. Further, the relative viability in assay [3] (first compound 0.1 µM) came out at 0.242; in assay [3] (first compound 0.3162 µM) it was 0.0861; in assay [3] (first compound 1 µM) it was 0.0896; in assay [4] (first compound 0.2 µM) it was 1.54; in assay [4] (first compound 0.6325 µM), 1.02; in assay [4] (first compound 2 µM) it was 1.15. In addition, the relative viability is 0.589 in assay [4] (first compound 6.325 µM) and 0.554 in assay [4] (first compound 20 µM).
Regarding NCI-H727, the relative viability stood at 1.18 in assay [1] (first compound 0.02 µM); 1.18 in assay [1] (first compound 0.06325 µM); 1.14 in assay [1] (first compound 0.2 µM); 1.05 in assay [1] (first compound 0.6325 µM); 1.1 in assay [1] (first compound 2 µM); 1.15 in assay [2] (first compound 0.2 µM). For the same cell line, the relative viability is 0.832 in assay [2] (first compound 0.6325 µM); 0.915 in assay [2] (first compound 2 µM); 0.952 in assay [2] (first compound 6.325 µM); 0.796 in assay [2] (first compound 20 µM); 0.57 in assay [3] (first compound 0.01 µM); 0.427 in assay [3] (first compound 0.03162 µM). Further, the relative viability is 0.352 in assay [3] (first compound 0.1 µM); 0.279 in assay [3] (first compound 0.3162 µM); 0.23 in assay [3] (first compound 1 µM); 0.447 in assay [4] (first compound 0.2 µM); 0.377 in assay [4] (first compound 0.6325 µM); 0.442 in assay [4] (first compound 2 µM). Also, the relative viability in assay [4] (first compound 6.325 µM) was found to be 0.614; in assay [4] (first compound 20 µM) it was 0.556.
On to NCI-H838, for which the relative viability in assay [1] (first compound 0.02 µM) came out at 0.749; in assay [1] (first compound 0.06325 µM), 0.749; in assay [1] (first compound 0.2 µM), 0.766; in assay [1] (first compound 0.6325 µM), 0.808; in assay [1] (first compound 2 µM), 0.726; in assay [2] (first compound 0.2 µM), 1.55. For the same cell line, the relative viability is 0.964 in assay [2] (first compound 0.6325 µM); 0.941 in assay [2] (first compound 2 µM); 1.01 in assay [2] (first compound 6.325 µM); 1.07 in assay [2] (first compound 20 µM); 0.332 in assay [3] (first compound 0.01 µM); 0.3 in assay [3] (first compound 0.03162 µM). Moreover, the relative viability in assay [3] (first compound 0.1 µM) worked out at 0.288; in assay [3] (first compound 0.3162 µM), 0.256; in assay [3] (first compound 1 µM), 0.256; in assay [4] (first compound 0.2 µM), 1.35; in assay [4] (first compound 0.6325 µM) it was 1.07; in assay [4] (first compound 2 µM), 1.24. For the same cell line, the relative viability in assay [4] (first compound 6.325 µM) turned out to be 1.1; in assay [4] (first compound 20 µM), 1.25.
In the case of NCI-H1355, the relative viability was determined as 0.621 in assay [1] (first compound 0.02 µM); 0.577 in assay [1] (first compound 0.06325 µM); 0.64 in assay [1] (first compound 0.2 µM); 0.704 in assay [1] (first compound 0.6325 µM); 0.566 in assay [1] (first compound 2 µM); 1.11 in assay [2] (first compound 0.2 µM). Further, the relative viability in assay [2] (first compound 0.6325 µM) stood at 0.968; in assay [2] (first compound 2 µM), 0.941; in assay [2] (first compound 6.325 µM), 0.966; in assay [2] (first compound 20 µM), 1.01; in assay [3] (first compound 0.01 µM), 0.804; in assay [3] (first compound 0.03162 µM), 0.709. For the same cell line, the relative viability in assay [3] (first compound 0.1 µM) came out at 0.545; in assay [3] (first compound 0.3162 µM), 0.601; in assay [3] (first compound 1 µM), 0.264; in assay [4] (first compound 0.2 µM), 1.08; in assay [4] (first compound 0.6325 µM), 0.867; in assay [4] (first compound 2 µM), 0.999. Moreover, the results for the relative viability in assay [4] (first compound 6.325 µM) and in assay [4] (first compound 20 µM) were 1.03 and 1.09, respectively.
Consider NCI-H1395, for which the relative viability in assay [1] (first compound 0.02 µM) is 0.722; in assay [1] (first compound 0.06325 µM), 0.943; in assay [1] (first compound 0.2 µM), 0.975; in assay [1] (first compound 0.6325 µM) it was 0.67; in assay [1] (first compound 2 µM), 0.571; in assay [2] (first compound 0.2 µM), 0.994. Moreover, the relative viability stood at 0.86 in assay [2] (first compound 0.6325 µM); 0.903 in assay [2] (first compound 2 µM); 0.999 in assay [2] (first compound 6.325 µM); 1.29 in assay [2] (first compound 20 µM); 0.449 in assay [3] (first compound 0.01 µM); 0.432 in assay [3] (first compound 0.03162 µM). Also, the relative viability in assay [3] (first compound 0.1 µM) was determined as 0.395; in assay [3] (first compound 0.3162 µM) it was 0.336; in assay [3] (first compound 1 µM), 0.372; in assay [4] (first compound 0.2 µM), 1.13; in assay [4] (first compound 0.6325 µM), 1.05; in assay [4] (first compound 2 µM), 1.13. In addition, the relative viability worked out at 1.16 in assay [4] (first compound 6.325 µM) and 1.57 in assay [4] (first compound 20 µM).
For NCI-H1437, the relative viability in assay [1] (first compound 0.02 µM) stood at 0.789; in assay [1] (first compound 0.06325 µM), 0.912; in assay [1] (first compound 0.2 µM), 0.836; in assay [1] (first compound 0.6325 µM) it was 0.855; in assay [1] (first compound 2 µM), 0.688; in assay [2] (first compound 0.2 µM), 1.34. In addition, the relative viability was found to be 0.774 in assay [2] (first compound 0.6325 µM); 0.802 in assay [2] (first compound 2 µM); 0.726 in assay [2] (first compound 6.325 µM); 0.825 in assay [2] (first compound 20 µM); 0.451 in assay [3] (first compound 0.01 µM); 0.416 in assay [3] (first compound 0.03162 µM). Further, the relative viability worked out at 0.403 in assay [3] (first compound 0.1 µM); 0.397 in assay [3] (first compound 0.3162 µM); 0.395 in assay [3] (first compound 1 µM); 1.16 in assay [4] (first compound 0.2 µM); 0.997 in assay [4] (first compound 0.6325 µM); 1.19 in assay [4] (first compound 2 µM). For the same cell line, the results for the relative viability in assay [4] (first compound 6.325 µM) and in assay [4] (first compound 20 µM) were 1.02 and 1.15, respectively.
Consider NCI-H1650, for which the relative viability in assay [1] (first compound 0.02 µM) is 0.571; in assay [1] (first compound 0.06325 µM), 0.586; in assay [1] (first compound 0.2 µM) it was 0.553; in assay [1] (first compound 0.6325 µM) it was 0.729; in assay [1] (first compound 2 µM), 0.528; in assay [2] (first compound 0.2 µM), 0.925. Moreover, the relative viability in assay [2] (first compound 0.6325 µM) was 0.176; in assay [2] (first compound 2 µM) it was 0.802; in assay [2] (first compound 6.325 µM), 0.893; in assay [2] (first compound 20 µM) it was 0.774; in assay [3] (first compound 0.01 µM), 0.413; in assay [3] (first compound 0.03162 µM), 0.392. Besides, the relative viability in assay [3] (first compound 0.1 µM) was 0.342; in assay [3] (first compound 0.3162 µM), 0.399; in assay [3] (first compound 1 µM), 0.282; in assay [4] (first compound 0.2 µM) it was 1.37; in assay [4] (first compound 0.6325 µM), 1.26; in assay [4] (first compound 2 µM) it was 1.12. For the same cell line, the relative viability turned out to be 1.09 in assay [4] (first compound 6.325 µM) and 1.34 in assay [4] (first compound 20 µM).

The values above are taken from the supplement of paper PMC10307832.
